IC50 data for seven molecules are collected here from ChEMBL document CHEMBL2417453, “Anti-inflammatory asterosaponins from the starfish Astropecten monacanthus” (J Nat Prod, 2013).

SMILES strings stand for the structures. Where only a bound is given, the exact number is not on record here.

Type in all cases: functional, cell-based
Common to all, as to conditions: C57BL/6, BMDC

A short description of assay [1]: Antiinflammatory activity in C57BL/6 mouse BMDC cells assessed as inhibition of LPS-induced TNFalpha production preincubated for 1 hr prior to LPS-stimulation measured after 18 hrs by ELISA.
Assay [2] in a line: Antiinflammatory activity in C57BL/6 mouse BMDC cells assessed as inhibition of LPS-induced IL-6 production preincubated for 1 hr prior to LPS-stimulation measured after 18 hrs by ELISA. Background: An ELISA detects its analyte on a solid surface through an enzyme-linked reagent.
Assay [3] is described as follows: Antiinflammatory activity in C57BL/6 mouse BMDC cells assessed as inhibition of LPS-induced IL-12 p40 production preincubated for 1 hr prior to LPS-stimulation measured after 18 hrs by ELISA.

As a reminder, the IC50 is the concentration that gives 50% inhibition. With `C/C(=C\C(=O)CC(C)C)[C@H]1CC[C@H]2[C@@H]3C[C@H](O[C@@H]4O[C@H](C)[C@@H](O)[C@H](O[C@@H]5OC[C@@H](O[C@@H]6O[C@H](CO)[C@H](O)[C@H](O)[C@H]6O[C@@H]6O[C@H](C)[C@H](O)[C@H](O[C@@H]7O[C@@H](CO)[C@H](O)[C@H]7O)[C@H]6O)[C@H](O)[C@H]5O[C@@H]5O[C@H](C)[C@@H](O)[C@H](O)[C@H]5O)[C@H]4O)[C@H]4C[C@@H](OS(=O)(=O)O)CC[C@]4(C)C3=CC[C@]12C`, the IC50 was > 50 µM in assay [1], 3.17 µM in assay [2] and > 50 µM in assay [3].

On to `CC(C)C[C@H](O)C[C@](C)(O)[C@H]1CC[C@H]2[C@@H]3C[C@H](O[C@@H]4O[C@H](C)[C@@H](O)[C@H](O[C@@H]5OC[C@@H](O[C@@H]6O[C@H](CO)[C@H](O)[C@H](O)[C@H]6O[C@@H]6O[C@H](C)[C@H](O)[C@H](O[C@@H]7O[C@@H](CO)[C@H](O)[C@H]7O)[C@H]6O)[C@H](O)[C@H]5O[C@@H]5O[C@H](C)[C@@H](O)[C@H](O)[C@H]5O)[C@H]4O)[C@H]4C[C@@H](OS(=O)(=O)O)CC[C@]4(C)C3=CC[C@@]21C`, for which the concentration for half-maximal inhibition (IC50) in assay [1], in assay [2] and in assay [3] was > 50 µM in each case.

Take `CC(=O)[C@H]1CC[C@H]2[C@@H]3C[C@H](O[C@@H]4O[C@H](C)[C@@H](O)[C@H](O[C@@H]5OC[C@@H](O[C@@H]6O[C@H](CO)[C@H](O)[C@H](O)[C@H]6O[C@@H]6O[C@H](C)[C@H](O)[C@H](O[C@@H]7O[C@@H](CO)[C@H](O)[C@H]7O)[C@H]6O)[C@H](O)[C@H]5O[C@@H]5O[C@H](C)[C@@H](O)[C@H](O)[C@H]5O)[C@H]4O)[C@H]4C[C@@H](OS(=O)(=O)O)CC[C@]4(C)C3=CC[C@]12C`: the 50% inhibitory concentration (IC50) was > 50 µM in assay [1], 30.5 µM in assay [2] and > 50 µM in assay [3].

In the case of `CC(=O)CC(=O)C[C@@](C)(O)[C@H]1CC[C@H]2[C@@H]3C[C@H](O[C@@H]4O[C@H](CO)[C@@H](O)[C@H](O[C@@H]5O[C@H](C)[C@@H](O[C@@H]6O[C@H](C)[C@H](O)[C@H](O)[C@H]6O[C@@H]6O[C@H](C)[C@H](O)[C@H](O)[C@H]6O)[C@H](O)[C@H]5O[C@@H]5O[C@H](C)[C@@H](O)[C@H](O)[C@H]5O)[C@H]4O)[C@H]4C[C@@H](OS(=O)(=O)O)CC[C@]4(C)C3=CC[C@@]21C`, the half-maximal inhibitory concentration (IC50) is 1.21 µM in assay [1], 3.51 µM in assay [2] and 0.6 µM in assay [3].

Consider `CC(C)=CC(=O)C[C@@H](C)[C@H]1CC[C@H]2[C@@H]3C[C@H](O[C@@H]4O[C@H](CO)[C@@H](O)[C@H](O[C@@H]5O[C@H](C)[C@@H](O[C@@H]6O[C@H](C)[C@H](O)[C@H](O)[C@H]6O[C@@H]6O[C@H](C)[C@H](O)[C@H](O)[C@H]6O)[C@H](O)[C@H]5O[C@@H]5O[C@H](C)[C@@H](O)[C@H](O)[C@H]5O)[C@H]4O)[C@H]4C[C@@H](OS(=O)(=O)O)CC[C@]4(C)C3=CC[C@]12C`, for which the 50% inhibitory concentration (IC50) in assay [1] was > 50 µM; in assay [2] it was 4.37 µM; in assay [3], > 50 µM.

Consider `CC(C)CC(=O)C[C@](C)(O)[C@H]1CC[C@H]2[C@@H]3C[C@H](O[C@@H]4O[C@H](C)[C@@H](O)[C@H](O[C@@H]5OC[C@@H](O[C@@H]6O[C@H](CO)[C@H](O)[C@H](O)[C@H]6O[C@@H]6O[C@H](C)[C@H](O)[C@H](O[C@@H]7O[C@@H](CO)[C@H](O)[C@H]7O)[C@H]6O)[C@H](O)[C@H]5O[C@@H]5O[C@H](C)[C@@H](O)[C@H](O)[C@H]5O)[C@H]4O)[C@H]4C[C@@H](OS(=O)(=O)O)CC[C@]4(C)C3=CC[C@@]21C` [PSILASTEROSIDE], for which the concentration for half-maximal inhibition (IC50) in assay [1], in assay [2] and in assay [3] was > 50 µM each time.

Take `C[S+]([O-])c1ccc(-c2nc(-c3ccc(F)cc3)c(-c3ccncc3)[nH]2)cc1` (stereo unspecified) [SB-203580]: the IC50 in assay [1] came to 7.5 µM; in assay [2] it was 3.5 µM; in assay [3] it was 5 µM.
